Laboratory results published in patent publication US20150296790A1, “SILICON-CONTAINING COMPOUND AQUEOUS SOLUTION AND ANTIBACTERIAL/ANTIVIRAL AGENT INCLUDING SAID SOLUTION” (JEX CO., LTD., priority 2012, published 2015).
One block for each compound: values may come before it.

Experiment: Solubility of CD (clarity and stability, visual)
Assay type: physicochemical
Design: key to Solubility of CD: Stability: OK: When the aqueous CD solution did not exhibit the conditions such as presence of precipitates and deposits, the solution was considered as stable; NG: When the aqueous CD solution exhibited the conditions such as presence of precipitates and deposits, the solution was not considered as stable; key to Solubility of CD: Clarity: When the CD aqueous solution was clear, the solution was rated as “OK”; When the solution was not clear, the solution was rated as “NG”
Method: “Clarity” in “Solubility of CD” in the tables was determined by sequentially adding the CD and purified water at the respective ratio to a predetermined screw-cap bottle and stirring the mixture in the sealed bottle on a shaker to prepare the respective aqueous CD solution, which was then visually evaluated for clarity immediately after the preparation. When the CD aqueous solution was clear, the solution was rated as “OK”. When the solution was not clear, the solution was rated as “NG”. “Stability” in “Solubility of CD” in the tables was determined by allowing the respective aqueous CD solution after preparation to stand at ambient temperature for a predetermined period and then visually evaluating the conditions (such as presence of precipitates and deposits) of the solution.

[1] = Ratio of CD Alone 1 w/w % in purified water
[2] = Ratio of CD Alone 2 w/w % in purified water
[3] = Ratio of CD Alone 3 w/w % in purified water
[4] = Ratio of CD Alone 4-5 w/w % in purified water
[5] = Ratio of CD Alone 6 w/w % in purified water
[6] = Ratio of CD Alone 7-9 w/w % in purified water
[7] = Ratio of CD Alone 10 w/w % in purified water
[8] = Ratio of CD Alone 15 w/w % in purified water
[9] = Ratio of CD Alone 20 w/w % in purified water
[10] = Ratio of CD Alone 25 w/w % in purified water
[11] = Ratio of CD Alone 2-6 w/w % in purified water
[12] = Ratio of CD Alone 7 w/w % in purified water
[13] = Ratio of CD Alone 8-10 w/w % in purified water
[14] = Ratio of CD Alone 2-10 w/w % in purified water

Solubility of CD: Clarity [1]: OK
Solubility of CD: Stability [1]: OK
Solubility of CD: Clarity [2]: OK
Solubility of CD: Stability [2]: OK
Solubility of CD: Clarity [3]: OK
Solubility of CD: Stability [3]: OK
Solubility of CD: Clarity [4]: OK
Solubility of CD: Stability [4]: OK
Solubility of CD: Clarity [5]: OK
Solubility of CD: Stability [5]: OK
Solubility of CD: Clarity [6]: OK
Solubility of CD: Stability [6]: OK
Solubility of CD: Clarity [7]: OK
Solubility of CD: Stability [7]: OK
Solubility of CD: Clarity [8]: NG
Solubility of CD: Stability [8]: OK
Solubility of CD: Clarity [9]: NG
Solubility of CD: Stability [9]: OK
Solubility of CD: Clarity [10]: NG
Solubility of CD: Stability [10]: NG
Compound: OC[C@H]1O[C@@H]2O[C@H]3[C@H](O)[C@@H](O)[C@@H](O[C@H]4[C@H](O)[C@@H](O)[C@@H](O[C@H]5[C@H](O)[C@@H](O)[C@@H](O[C@H]6[C@H](O)[C@@H](O)[C@@H](O[C@H]7[C@H](O)[C@@H](O)[C@@H](O[C@H]8[C@H](O)[C@@H](O)[C@@H](O[C@H]9[C@H](O)[C@@H](O)[C@@H](O[C@H]1[C@H](O)[C@H]2O)O[C@@H]9CO)O[C@@H]8CO)O[C@@H]7CO)O[C@@H]6CO)O[C@@H]5CO)O[C@@H]4CO)O[C@@H]3CO [γ, γ-cyclodextrin]

Compound: OC[C@H]1O[C@@H]2O[C@H]3[C@H](O)[C@@H](O)[C@@H](O[C@H]4[C@H](O)[C@@H](O)[C@@H](O[C@H]5[C@H](O)[C@@H](O)[C@@H](O[C@H]6[C@H](O)[C@@H](O)[C@@H](O[C@H]7[C@H](O)[C@@H](O)[C@@H](O[C@H]1[C@H](O)[C@H]2O)O[C@@H]7CO)O[C@@H]6CO)O[C@@H]5CO)O[C@@H]4CO)O[C@@H]3CO [α, α-cyclodextrin]
Solubility of CD: Clarity [1]: OK
Solubility of CD: Stability [1]: OK
Solubility of CD: Clarity [11]: OK
Solubility of CD: Stability [11]: OK
Solubility of CD: Clarity [12]: OK
Solubility of CD: Stability [12]: OK
Solubility of CD: Clarity [13]: NG
Solubility of CD: Stability [13]: NG

Solubility of CD: Clarity [1]: OK
Solubility of CD: Stability [1]: OK
Solubility of CD: Clarity [14]: NG
Solubility of CD: Stability [14]: NG
Compound: OC[C@H]1O[C@@H]2O[C@H]3[C@H](O)[C@@H](O)[C@@H](O[C@H]4[C@H](O)[C@@H](O)[C@@H](O[C@H]5[C@H](O)[C@@H](O)[C@@H](O[C@H]6[C@H](O)[C@@H](O)[C@@H](O[C@H]7[C@H](O)[C@@H](O)[C@@H](O[C@H]8[C@H](O)[C@@H](O)[C@@H](O[C@H]1[C@H](O)[C@H]2O)O[C@@H]8CO)O[C@@H]7CO)O[C@@H]6CO)O[C@@H]5CO)O[C@@H]4CO)O[C@@H]3CO [β, β-cyclodextrin]
